In this assay the test system is P-388. As to the kind of experiment: Effect on prolongation of life span in cancer implanted mouse (P-388). The format is in vivo, CDF mouse. Particulars: Mus musculus, P388, ip, day 1 and day 5, P-388 i.p.; for responders at 100 mg/kg / responders at 200 mg/kg / responders at 25 mg/kg / responders at 50 mg/kg / responders at 12.5 mg/kg / responders at 400 mg/kg: 6 mice/group, read-out: cure (mice cured / mice in group) (converted). Here is the method:
Animal used: CDF mouse (6 mice/group)
Number of implanted cells: 10^6 cells/mouse
Day of administration: Day 1 and Day 5
Dosage: LD50 or 400 mg/kg/day at the maximum

The mark [1] stands for this setting: effective when T/C >= 120%, read-out: Ratio of Life Prolongation (%) (T/C %).

For the compound `COc1cc(NS(C)(=O)=O)ccc1Nc1c2c(nc3c(C)cccc13)-c1c(C)cccc1C2` [Compound 1, 6-4-(methanesulfonamide-2-methoxyanilino)-1,10-dimethylindeno[3,2-b]quinoline], the responders at 100 mg/kg (100 mg/kg) was 16.7%. For the same compound, the responders at 200 mg/kg (200 mg/kg) was 16.7%.
With `COc1cc(NS(C)(=O)=O)ccc1Nc1c2c(nc3c(C)cccc13)-c1ccccc1C2` [Compound 2, 6-4-(methanesulfonamide-2-methoxyanilio)-10-methylindeno[3,2-b]quinoline], the responders at 100 mg/kg (100 mg/kg) is 16.7%.
Regarding `CN(C)c1cc(NS(C)(=O)=O)ccc1Nc1c2c(nc3ccccc13)-c1ccccc1C2` [Compound 6, 6-(4-methanesulfonamide-2-dimethylaminoanilino)-indeno[3,2-b]quinoline], where the note is “200 mg/kg”, the responders at 200 mg/kg is 33.3%.
For `COc1cc(NS(C)(=O)=O)ccc1Nc1c2cccc(C)c2nc2c1[nH]c1ccccc12` [Compound 9], the responders at 50 mg/kg is 66.7%. The responders at 25 mg/kg (25 mg/kg) is 16.7%.
With `COc1cc(NS(C)(=O)=O)ccc1Nc1c2cccc(C)c2nc2c1[nH]c1cccc(C)c12` [Compound 10, 6-(4-methanesulfonamide-2-methoxyanilino)-1,10-dimethylindolo[3,2-b]quinoline], for the setting “100 mg/kg”, the responders at 100 mg/kg was 16.7%.
For `COc1cc(NS(C)(=O)=O)ccc1Nc1c2cccc(C)c2nc2c1[nH]c1cc(C)ccc12` [Compound 11, 6-(4-methanesulfonamide-2-methoxyanilino)-3,10-dimethylindolo[3,2-b]quinoline], the responders at 50 mg/kg is 16.7%. The responders at 12.5 mg/kg (12.5 mg/kg) is 16.7%. Also, the responders at 25 mg/kg (25 mg/kg) is 33.3%.
Turning to `COc1cc(NS(C)(=O)=O)ccc1Nc1c2ccccc2nc2c1[nH]c1ccc(Cl)cc12` [Compound 12], the responders at 50 mg/kg is 16.7%. The responders at 25 mg/kg (25 mg/kg) is 16.7%.
In the case of `COC(=O)Nc1ccc(Nc2c3ccccc3nc3c2[nH]c2ccccc23)c(OC)c1` [Compound 14], for the setting “100 mg/kg”, the responders at 100 mg/kg is 16.7%.
For `COc1cc(NC(C)=O)ccc1Nc1c2ccccc2nc2c1[nH]c1ccccc12` [Compound 15], for the setting “100 mg/kg”, the responders at 100 mg/kg is 16.7%.
For `COc1cc(NS(C)(=O)=O)ccc1Nc1c2ccccc2nc2c1[nH]c1cccc(C)c12` [Compound 16, 6-(4-methanesulfonamide-2-methoxyanilino)-1-mehtylindolo[3,2-b]quinoline], the responders at 12.5 mg/kg (12.5 mg/kg) was 33.3%. For the same compound, the responders at 25 mg/kg (25 mg/kg) was 33.3%.
Regarding `COc1cc(NS(C)(=O)=O)ccc1Nc1c2ccccc2nc2c1[nH]c1ccc([N+](=O)[O-])cc12` [Compound 18, 6-(4-methanesulfonamide-2-methoxyanilino)-2-nitroindolo[3,2-b]quinoline], under “12.5 mg/kg”, the responders at 12.5 mg/kg is 16.7%. For the same compound, the response vs control in vivo at 12.5 mg/kg (12.5 mg/kg, effective when T/C >= 120%, read-out: Ratio of Life Prolongation (%) (T/C %)) stood at 164%. Also, the response vs control in vivo at 25 mg/kg (25 mg/kg, effective when T/C >= 120%, read-out: Ratio of Life Prolongation (%) (T/C %)) worked out at 131%. Moreover, the response vs control in vivo at 50 mg/kg under setting [1] came out at 70%.
On to `COc1cc(NS(C)(=O)=O)ccc1Nc1c2ccccc2nc2c1[nH]c1ccc(F)cc12` [Compound 19, 2-fluoro-6-(4-methanesulfonamide-2-methoxyanilino)indolo[3,2-b]quinoline], for which the responders at 12.5 mg/kg (12.5 mg/kg) is 50%. Besides, the responders at 25 mg/kg (25 mg/kg) was 33.3%. Besides, the response vs control in vivo at 50 mg/kg under setting [1] is 93%.
For the compound `COc1cc(O)ccc1Nc1c2ccccc2nc2c1[nH]c1ccccc12` [Compound 20], under “25 mg/kg”, the responders at 25 mg/kg was 16.7%. For the same compound, under setting [1], the response vs control in vivo at 50 mg/kg amounted to 202%.
As for `COc1cc(OC(C)=O)ccc1Nc1c2ccccc2nc2c1[nH]c1ccccc12` [Compound 21], the responders at 50 mg/kg is 16.7%. Also, the response vs control in vivo at 100 mg/kg (100 mg/kg, effective when T/C >= 120%, read-out: Ratio of Life Prolongation (%) (T/C %)) came to 212%.
For the compound `COc1cc(NS(C)(=O)=O)ccc1Nc1c2ccccc2nc2c1[nH]c1ccc(N)cc12` [Compound 22, 2-amino-6-(4-methanesulfonamide-2-methoxyanilino)indolo[3,2-b]quinoline], the responders at 50 mg/kg was 16.7%. Under setting [1], the response vs control in vivo at 50 mg/kg is 242%.
In the case of `COc1cc(NS(C)(=O)=O)ccc1Nc1c2ccccc2nc2c1[nH]c1ccc(NC(C)=O)cc12` [Compound 25], the response vs control in vivo at 50 mg/kg under setting [1] came to 184%.
Still for that read-out and setting: to `COc1cc(NS(C)(=O)=O)ccc1Nc1c2ccccc2nc2c1[nH]c1ccc(NS(C)(=O)=O)cc12` [Compound 26, 2-methanesulfonamide-6-(4-methanesulfonamide-2-methoxyanilino)indolo[3,2-b]quinoline] belongs 143%.
For `COc1cc(NS(C)(=O)=O)ccc1Nc1c2cccc(C)c2nc2c1oc1ccccc12` [Compound 27, 6-(4-methanesulfonamide-2-methoxyanilino)-10-methylbenzofurano[3,2-b]quinoline], where the note is “200 mg/kg”, the responders at 200 mg/kg is 16.7%. Under “400 mg/kg”, the responders at 400 mg/kg is 33.3%. Moreover, the response vs control in vivo at 400 mg/kg (400 mg/kg, effective when T/C >= 120%, read-out: Ratio of Life Prolongation (%) (T/C %)) was determined as 310%.
As for `COc1cc(NS(C)(=O)=O)ccc1Nc1c2cccc(C)c2nc2c1oc1cccc(C)c12` [Compound 28, 6-(4-methanesulfonamide-2-methoxyanilino)-1,10-dimethylbenzofurano[3,2-b]quinoline], the response vs control in vivo at 200 mg/kg (200 mg/kg, effective when T/C >= 120%, read-out: Ratio of Life Prolongation (%) (T/C %)) was 103%.
As for `COc1cc(NS(C)(=O)=O)ccc1Nc1c2cccc(C)c2nc2c1oc1cc(C)ccc12` [Compound 29, 6-(4-methanesulfonamide-2-methoxyanilino)-3,10-dimethylbenzofurano[3,2-b]quinoline], where the note is “100 mg/kg”, the responders at 100 mg/kg was 16.7%. In addition, for the setting “200 mg/kg”, the responders at 200 mg/kg is 16.7%.
Turning to `COc1cc(NS(C)(=O)=O)ccc1Nc1c2ccccc2nc2c1oc1cc(C)ccc12` [Compound 31, 6-(4-methanesulfonamide-2-methoxyanilino)-3-methylbenzofurano[3,2-b]quinoline], where the note is “200 mg/kg”, the responders at 200 mg/kg is 16.7%. Besides, under “400 mg/kg”, the responders at 400 mg/kg was 16.7%.
`COc1cc(NS(C)(=O)=O)ccc1Nc1c2ccccc2nc2c1sc1cccc(C)c12` [Compound 33, 6-(4-methanesulfonamide-2-methoxyanilino)-1-methylbenzothieno[3,2-b]quinoline]: where the note is “200 mg/kg”, the responders at 200 mg/kg was 16.7%. In addition, the responders at 400 mg/kg (400 mg/kg) was 16.7%.

Source of the values: patent US5217961A, “Condensed quinoline system N-glycosides” (Mect Corporation, priority 1988, dated 1993).
